In patent US20060229256A1, “Enternal administration of arginine and glutamine for abnormal vascular proliferation” (Bristol-Myers Squibb Company, priority 2003, published 2006):
“And” between values parts separate entries of the source, which are not always exact repeats. Equal values may be shown once.

Assays:
[1] = system: neonatal mouse model of oxygen-induced retinopathy; assay: Neonatal mouse model of oxygen-induced retinopathy, intra-peritoneal injection, pre-retinal nuclei count and retinal flat mounts; format: in vivo; conditions: for reduction in preretinal nuclei / preretinal vascularization: 5 g/kg/d intra-peritoneal, twice daily, P12-P17, versus vehicle
Method: (§1) In the neonatal mouse model of oxygen-induced retinopathy, 7-day old mice were placed with their nursing dams in a 75% oxygen atmosphere for 5 days. (Smith et al., Invest Ophthalmol Vis Sci., 35(1):101-111 (1994). Mouse pups received twice daily intra-peritoneal injections (50 μl) starting on postnatal day 12 (P12) and continuing through postnatal day 17 (P17). In one experiment, injections included vehicle (0.9% sodium chloride) and the test compounds Ala-gly (5 g/kg/d), Arg-gln dipeptide (5 g/kg/d) and in a second experiment, different doses of Arg-gln (1.0, 2.5 and 5 g/kg/d) were tested.
(§2) After the fifth day following return to normoxia (P17), the animals were euthanized by injection of a lethal dose of a combination of ketamine (70 mg/kg body weight) and xylazine (15 mg/kg body weight) followed by cervical dislocation. The eyes were removed and fixed in 4% paraformaldehyde, embedded in paraffin, and sectioned as previously described. (Smith et al., Id.) Pre-retinal nuclei were counted by masked observers. Efficacy of treatment was calculated as the percent average nuclei per section in the eyes of Arg-Gln treated animals versus control animals.
All data represent the mean±SEM. ANOVA was used to evaluate differences among groups, and individual contrasts were done using Student t-tests with Bonferroni correction was used to determine the significance between groups.

[2] = system: VEGF mRNA; assay: VEGF mRNA in retina of oxygen-induced retinopathy mice (real-time RT-PCR); format: in vivo, mouse; conditions: 5 g/kg/d parenteral, day 5 after removal from high oxygen, P=0.007
Method: as §1
For total RNA isolations from retina the animals were sacrificed and the eyes removed. The retina were then dissected away from the eye and stored in RNAlater® buffer (Ambion, Austin, Tex.) at 4° C. for subsequent isolation of protein or RNA.
VEGF protein concentration was determined from isolated mouse retinas using the Quantikine® Human VEGF Immunoassay ELISA kit (R&D Systems, Minneapolis, Minn.). Pups were treated with the 5 g/kg/d dose of dipeptide and at varying time points after the pups were removed from oxygen on day 12. Eyes were enucleated at 0.5, 1 and 5 days post removal from high oxygen (n=14 eyes for each data point). Vehicle treated animals were compared to dipeptide-treated animals. […]

[3] = system: neonatal mouse model of oxygen-induced retinopathy; assay: Neonatal mouse model of oxygen-induced retinopathy, gavage (enteral) administration, pre-retinal nuclei count; format: in vivo; conditions: gavage, 1, 2.5 and 5 gm/kg·day, P12-P17, versus vehicle; dose/response, highest effectiveness at 5 gm/kg·day
From the text: In the neonatal mouse model of oxygen-induced retinopathy, 7-day old mice were placed with their nursing dams in a 75% oxygen atmosphere for 5 days. Mouse pups received twice a day gavage feedings of dipeptide or control solution (50 microliter) starting on postnatal day 12 (P12) and continuing through postnatal day 17 (P17). Gavage feeds included vehicle (0.9% sodium chloride) and the test compounds and different doses of Arg-Gln (1.0, 2.5 and 5 gm/kg/d). The daily dosage of the dipeptide was divided evenly between the two daily gavage feedings.
as §2, with “sectioned.” for “sectioned as previously described. (Smith et al., Id.)”

[4] = system: vascular endothelial cell growth factor (VEGF) in human retinal pigment epithelial cells (hRPE); assay: VEGF secretion by human retinal pigment epithelial cells (VEGF ELISA of culture medium); format: cell-based
Method: Human eyes were obtained from the National Disease Resource Interchange within 36 h of death. hRPE cells were prepared and maintained as described by Grant et al., in Curr. Eye Res., 9(4):323-335 (1990), and Enzmann et al., in Transpl Immunol, March 7(1): 9-14 (1999). For cell culture experiments, hRPE from passages 3-5 were used. All tissue culture media was purchased from Mediatech, Inc., Herndon, Fla. hRPE cultures were placed in glutamine-free medium for 24 hrs and then were exposed either to 0, 0.5, 1, 2.5 or 5 mg/ml of Arg-gln dipeptide for 48 hrs. At the end of 48 hrs, VEGF content of the culture medium containing the hRPE cells was measured using the Quantikine® Human VEGF Immunoassay ELISA kit (R&D Systems, Minneapolis, Minn.).

Ala-gly [reference compound]
reduction in preretinal nuclei / preretinal vascularization [1]: 2±5%

arginyl-glutamine dipeptide [Arg-gln]
VEGF mRNA in retina versus vehicle-treated pups [2]: significant reduction | VEGF mRNA in retina versus vehicle-treated pups ([2]; listed as Arg-gln dipeptide): much lower | effect on preretinal nuclei, all doses ([1]; 1.0, 2.5 and 5.0 g/kg/d intra-peritoneal, five days of treatment, P<0.00001): significant reduction | effect on preretinal nuclei at the lowest dose tested (FIG. 2) ([1]; 1 gm/kg·day intra-peritoneal, P12-P17): significant reduction | reduction in preretinal nuclei / preretinal vascularization [1]: ~80% and 82±7% | reduction in preretinal nuclei / preretinal vascularization ([1]; listed as Arg-gln dipeptide): 80% | retinal flat mounts (fluorescently labeled dextran): neovascular tufts and vascular leakage ([1]; Arg-gln treated pups compared to control dipeptide Ala-gly treated pups): reduced neovascular tufts and vascular leakage | average nuclei per section in the eyes (FIG. 4) [3]: decreased at all levels of administration | effect on VEGF secretion as a function of the level of Arg-gln (FIG. 1) ([4]; 0-5 mg/ml, 48 hrs): statistically significant dose-dependent decrease | decrease in soluble VEGF expression into the culture medium ([4]; 1.5 mM Arg-gln, 48 hrs exposure after 24 hrs in glutamine-free medium, P=0.002): 52.3±6.2%
